Data as given in PubChem BioAssay (NCI).
“And” between values parts separate entries of the source, which are not always exact repeats. Equal values may be shown once.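 Briefly, cells in 96-well plates were exposed to five compound concentrations for 48 h, and endpoints were estimated by linear interpolation. The concentration for 50% growth inhibition is given as GI50. TGI: total growth inhibition.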

Each molecule was assayed on HS 578T breast (assay: NCI-60 cell line screen, 48 h).

Row | Structure (SMILES) | TGI [µM]
1 | Cc1cnc(NCCCN(C)C)c2c1[nH]c1ccc3cc(O)ccc3c12 | 2.22
2 | Fc1ccc(NC(=S)SCc2ccc3c(c2)OCO3)cc1F | 88.7

The molecules below were run on A549 NSCLC (assay: NCI-60 cell line screen, 48 h).

Row | Structure (SMILES) | TGI | GI50 [µM]
3 | O=C1/C(=C/c2ccc(O)c(O)c2)CCC/C1=C\c1ccc(O)c(O)c1 | > 50.2 µM | 
4 | Cc1c(C(=O)C/C(=N/NC(=O)c2ccccc2O)C(=O)Nc2ccccc2C(C)C)[n+](=O)c2ccccc2n1[O-] | > 100 µM | 
5 | CCCCCCCCCCCC(=O)OCCOCCOCCOCCOCCOCc1ccccc1 | > 100 µM | 
6 | CCCC1C(=O)CCc2c(OC)ccc(OC)c21 (centres undefined) | > 100 µM | 
7 | O=C(CCc1nc(=S)[nH][nH]1)Nc1cc(Cl)c(Cl)cc1Cl | > 100 µM | 
8 | O=C(Nc1nc2ccc([N+](=O)[O-])cc2s1)C(=O)C(C1OC(=O)c2ccccc21)[N+](=O)[O-] (centres undefined) | > 100 µM | 
9 | O=C(CCc1nc(=S)[nH][nH]1)Nc1ccc(Cl)c(Cl)c1 | > 100 µM | 
10 | COC(=O)C1(C(C)C)CCc2c(OC)ccc(OC)c2C1=O (centres undefined) | > 100 µM | 
11 | O=C(Nc1ccccc1)c1c(O)[nH]c(=S)[nH]c1=O | 82.6 µM and 147 µM | 36.7
12 | COC(=O)c1ccccc1NC(=O)C(=O)Cc1nc2c3c(ccc2[nH]c1=O)C(=O)c1ccccc1C3=O | 62.1 µM | 
13 | Cc1ccc(S(=O)(=O)OC[C@@H]2CO2)cc1 | > 100 µM | 
14 | COc1cc2cc(OC)c3cc4c(cc3c2c(OC)c1OC)OCO4 | > 95.8 µM | 
15 | O=C(CC(=O)c1cccc2ccccc12)C(=O)Nc1ccc(Cl)cc1 | > 100 µM | 
16 | CCCCCCCCCCCCCC(=O)OC(/C=C/C(C)C)C(O)C(O)C(OC)C(=O)NC1CCCCN(C)C1=O (centres undefined) | 5.06 µM and > 49 µM | 
17 | CC1(C(=O)O)CCC[C@@]2(C)C1CC[C@@]1(C)c3cocc3CCC21 (some centres undefined) | > 100 µM | 
18 | CCn1c(C)nn2c(=O)c3ccccc3nc2c1=O | > 100 µM | 
19 | CCOC(=O)CCC1(C(=O)OCC)CCCCC1=O (centres undefined) | > 100 µM | 
20 | CCN(CC)CCSc1c2ccccc2nc2cc(NCC(=O)Nc3ccccc3-c3ccccc3NC(=O)CNc3ccc4c(SCCN(CC)CC)c5ccccc5nc4c3)ccc12 | > 100 µM | 
21 | Cc1nc2c(ccc3ncccc32)[nH]1 | > 100 µM | 

Row | Structure (SMILES) | TGI | GI50 [µM]
22 | Cc1cc(N(CCC#N)CCC#N)ccc1N=Nc1ccc(S(N)(=O)=O)cc1 | > 100 µM | 
23 | CC(=O)[CH-]C(=O)c1ccccc1.CC(=O)[CH-]C(=O)c1ccccc1.CN(C)c1ccc([O-])cc1.CN(C)c1ccc([O-])cc1.Cl.[Ti+4] | > 31.6 µM | 29
24 | CC1(C)C(=O)/C=C\C(=O)C(C)(C)C2=CC=C(O2)C(C)(C)C(=O)/C=C\C(=O)C(C)(C)C2=CC=C1O2 | > 100 µM | 
25 | NC(=O)NO.O.O.O.O.O.O.O.O.O.O.O.[Ge].[Ge].[Ge].[Ge].[Ge].[O]=[Ge].[O]=[Ge].[O]=[Ge].[O]=[Ge].[O]=[Ge][OH] | > 100 µM | 
26 | CN(C)C(=S)N=C(Nc1ccccc1)Nc1ccccc1 | > 100 µM | 
27 | CCC[CH2][Sn]([CH2]CCC)([S]c1cccc2cccnc12)[S]c1cccc2cccnc12 | 1.34 µM | 0.348
28 | OCC1=CC(NC2CC(CO)C(O)C(O)C2O)C(O)C(O)C1O (centres undefined) | > 100 µM | 
29 | Nc1ccccc1S(=O)(=O)N(CC(=O)O)c1ccccc1 | > 100 µM | 
30 | CCOC(=O)C(C)(C)Oc1ccc2c(-c3ccccc3)cc(=O)oc2c1 | > 100 µM | 
31 | CNS(=O)(=O)NNS(=O)(=O)c1ccccc1 | > 100 µM | 
32 | Cc1cc(NS(=O)(=O)c2ccc(Nc3c4ccccc4nc4c(C(=O)N5CCN(CCOS(C)(=O)=O)CC5)cccc34)cc2)no1 | > 100 µM | 
33 | O=C(O)CCC(NC(=O)c1ccc(Nc2nc3ccccc3nc2-c2cccs2)cc1)C(=O)O (centres undefined) | > 100 µM | 
34 | NC1=NCCC1(c1ccccc1)c1ccccn1 (centres undefined) | > 100 µM | 
35 | CNC(=S)OCCC(C)CCCC(C)C (centres undefined) | 32.5 µM | 
36 | Nc1ccccc1C#C/C=C\C#Cc1ccccc1OC(F)(F)F | > 100 µM | 5.99
37 | COC(=O)/C(C#N)=C1\NC(=O)c2ccccc21 | > 100 µM | 
38 | Cc1ccc(NC(=O)Nc2ccc(-c3cccnc3)cc2N2CCC(CO)CC2)cc1 | > 100 µM | 3.18
39 | Cc1cnc(NCCCN(C)C)c2c1[nH]c1ccc3cc(O)ccc3c12 | 2.5 µM | 
40 | Fc1ccc(NC(=S)SCc2ccc3c(c2)OCO3)cc1F | 44.6 µM | 

Each molecule was assayed on LXFL 529 NSCLC (assay: NCI-60 cell line screen, 48 h).

Row | Structure (SMILES) | TGI | GI50 [µM]
41 | Cc1c(C(=O)C/C(=N/NC(=O)c2ccccc2O)C(=O)Nc2ccccc2C(C)C)[n+](=O)c2ccccc2n1[O-] | > 100 µM | 
42 | CCCCCCCCCCCC(=O)OCCOCCOCCOCCOCCOCc1ccccc1 | > 100 µM | 
43 | CCCC1C(=O)CCc2c(OC)ccc(OC)c21 (centres undefined) | > 100 µM | 
44 | O=C(CCc1nc(=S)[nH][nH]1)Nc1cc(Cl)c(Cl)cc1Cl | > 100 µM | 
45 | O=C(Nc1nc2ccc([N+](=O)[O-])cc2s1)C(=O)C(C1OC(=O)c2ccccc21)[N+](=O)[O-] (centres undefined) | > 100 µM | 
46 | O=C(CCc1nc(=S)[nH][nH]1)Nc1ccc(Cl)c(Cl)c1 | > 100 µM | 
47 | COC(=O)C1(C(C)C)CCc2c(OC)ccc(OC)c2C1=O (centres undefined) | > 100 µM | 
48 | COC(=O)c1ccccc1NC(=O)C(=O)Cc1nc2c3c(ccc2[nH]c1=O)C(=O)c1ccccc1C3=O | > 100 µM | 
49 | Cc1ccc(S(=O)(=O)OC[C@@H]2CO2)cc1 | > 100 µM | 
50 | COc1cc2cc(OC)c3cc4c(cc3c2c(OC)c1OC)OCO4 | > 100 µM | 
51 | O=C(CC(=O)c1cccc2ccccc12)C(=O)Nc1ccc(Cl)cc1 | > 100 µM | 
52 | CCCCCCCCCCCCCC(=O)OC(/C=C/C(C)C)C(O)C(O)C(OC)C(=O)NC1CCCCN(C)C1=O (centres undefined) | 6.89 µM and > 49 µM | > 49
53 | CC1(C(=O)O)CCC[C@@]2(C)C1CC[C@@]1(C)c3cocc3CCC21 (some centres undefined) | > 100 µM | 
54 | CCn1c(C)nn2c(=O)c3ccccc3nc2c1=O | > 100 µM | 
55 | CCOC(=O)CCC1(C(=O)OCC)CCCCC1=O (centres undefined) | > 100 µM | 
56 | CCN(CC)CCSc1c2ccccc2nc2cc(NCC(=O)Nc3ccccc3-c3ccccc3NC(=O)CNc3ccc4c(SCCN(CC)CC)c5ccccc5nc4c3)ccc12 | > 100 µM | 
57 | Cc1nc2c(ccc3ncccc32)[nH]1 | > 100 µM | 
58 | Cc1cc(N(CCC#N)CCC#N)ccc1N=Nc1ccc(S(N)(=O)=O)cc1 | > 100 µM | 
59 | CC(=O)[CH-]C(=O)c1ccccc1.CC(=O)[CH-]C(=O)c1ccccc1.CN(C)c1ccc([O-])cc1.CN(C)c1ccc([O-])cc1.Cl.[Ti+4] | > 31.6 µM | 16
60 | CC1(C)C(=O)/C=C\C(=O)C(C)(C)C2=CC=C(O2)C(C)(C)C(=O)/C=C\C(=O)C(C)(C)C2=CC=C1O2 | > 100 µM | 
61 | NC(=O)NO.O.O.O.O.O.O.O.O.O.O.O.[Ge].[Ge].[Ge].[Ge].[Ge].[O]=[Ge].[O]=[Ge].[O]=[Ge].[O]=[Ge].[O]=[Ge][OH] | > 100 µM | 
62 | CCC[CH2][Sn]([CH2]CCC)([S]c1cccc2cccnc12)[S]c1cccc2cccnc12 | 0.163 µM | 0.039
63 | Nc1ccccc1S(=O)(=O)N(CC(=O)O)c1ccccc1 | > 100 µM | 
64 | CCOC(=O)C(C)(C)Oc1ccc2c(-c3ccccc3)cc(=O)oc2c1 | 94.8 µM | 
65 | CNS(=O)(=O)NNS(=O)(=O)c1ccccc1 | > 100 µM | 
66 | O=C(O)CCC(NC(=O)c1ccc(Nc2nc3ccccc3nc2-c2cccs2)cc1)C(=O)O (centres undefined) | > 100 µM | 
67 | NC1=NCCC1(c1ccccc1)c1ccccn1 (centres undefined) | > 100 µM | 
68 | CNC(=S)OCCC(C)CCCC(C)C (centres undefined) | 30.4 µM | 
69 | COC(=O)/C(C#N)=C1\NC(=O)c2ccccc21 | > 100 µM | 
70 | Cc1cnc(NCCCN(C)C)c2c1[nH]c1ccc3cc(O)ccc3c12 | 1.76 µM | 

What follows are molecules tested on M19-MEL melanoma (assay: NCI-60 cell line screen, 48 h).

Row | Structure (SMILES) | TGI [µM]
71 | O=C1/C(=C/c2ccc(O)c(O)c2)CCC/C1=C\c1ccc(O)c(O)c1 | 12.3
